Data published in US20150159169A1, “Plants Tolerant to HPPD Inhibitor Herbicides” (Bayer CropScience AG, priority 2009, published 2015).
“And” between values parts separate entries of the source, which are not always exact repeats. Equal values may be shown once.

How the values were obtained:
wild type tobacco plants = experiment: Glasshouse spray trial, % injury; assay type: in vivo, Nicotiana tabacum; conditions: 7DAT, 100 gAI/ha spray; individual WT plants; 100% = bleaching as wild type
Protocol: (§1) T0 Tobacco plants containing either the gene from Arabidopsis coding for HPPD or the gene FMP27e from Kordia algicida coding for FMP27 HPPD, mentioned above (Example 3), were transferred to the glasshouse (28/20° C.), to develop further and produce seeds. Those seeds were harvested and put on soil (ED73 mixed with sand and osmocote Pro) to germinate in the glasshouse (28/20° C.). Three to four weeks later, plantlets were transferred to single pots containing the soil mentioned above. Two weeks later, plants of a size 4-6 cm diameter were sprayed with either • tembotrione at 100 gAI/ha prepared from a WP20 (wettable powder 20%) formulation supplemented with ammonium sulfate and methyl ester raps oil, or • isoxaflutole at 100 gAI/ha prepared from a WP20 formulation supplemented with ammonium sulfate and methyl ester raps oil, or • bicyclopyrone at 100 gAI/ha prepared from a WP20 formulation supplemented with ammonium sulfate and methyl ester raps oil, or • “blind formulation” made from a WP20 formulation without active ingredient (AI) supplemented with ammonium sulfate and methyl ester raps oil, and were then transferred to a growth chamber with adequate light conditions (20000 Lux).
(§2) Table 6: Wild type tobacco plants (A) and T1 populations of tobacco events containing alternatively, the expression cassettes described above having the promoter CaMV 35S, the sequence coding for OTP and the sequence coding for Arabidopsis HPPD (B) or the promoter CaMV35S, the sequence encoding OTP, and the sequence FMP27e coding for the HPPD FMP27 (C). Assessments of herbicidal damage at 7 days after application (DAT) per spray with 100 g AI/ha of tembotrione or isoxaflutole supplemented with ammonium sulfate and methyl ester raps oil. […] Plants belonging to categories (B) and (C) have not been selected for the presence of the respective transgene prior to the herbicide application.

[1] = system: T1 tobacco plants containing FMP27e (Kordia algicida HPPD FMP27); experiment: Glasshouse spray trial, % injury; assay type: in vivo, Nicotiana tabacum; conditions: 7DAT, 100 gAI/ha spray
Protocol: as §1, §2

[2] = system: T1 tobacco plants containing Arabidopsis HPPD; experiment: Glasshouse spray trial, % injury; assay type: in vivo, Nicotiana tabacum; conditions: 7DAT, 100 gAI/ha spray
Protocol: as §1, §2

wild-type soybean shoots = experiment: Soybean shoot greening on isoxaflutole selection; assay type: cell-based; conditions: same amount of isoxaflutole
Text: (§3) Soybean transformation was achieved using methods well known in the art, such as the one described using the Agrobacterium tumefaciens mediated transformation soybean half-seed explants described by Paz et al. (2006, Plant cell Rep. 25:206). Transformants were identified using Isoxaflutole as selection marker. The appearance of green shoots was observed, and documented as an indicator of tolerance to the herbicide isoxaflutole. […] Tolerant green shoots were transferred to rooting media or grafted. Rooted plantlets were transferred to the glasshouse after an acclimation period.

[3] = system: transgenic soybean shoots (FMP27 protein); experiment: Soybean shoot greening on isoxaflutole selection; assay type: cell-based; conditions: isoxaflutole as selection marker
Text: as §3

CS(=O)(=O)c1cc(C(F)(F)F)ccc1C(=O)c1cnoc1C1CC1 [Isoxaflutole, (5-cyclopropyl-4-isoxazolyl)[2-(methylsulfonyl)-4-(trifluoromethyl)phenyl]methanone]
% injury (wild type tobacco plants): 99% (2×) and 100% (4×) and 98% | % injury ([1]; line 121, individual T1 plants): 0% (4×) and 1% and 2% and 20% | % injury ([1]; line 129, individual T1 plants): 0% (4×) and 1% (3×) and 2% (3×) and 5% and 10% (2×) | % injury ([1]; line 218, individual T1 plants): 0% (9×) and 1% (3×) and 2% and 3% and 5% | % injury ([2]; line 252, individual T1 plants): 30% and 70% and 95% and 98% (2×) and 99% (4×) and 100% (4×) | % injury ([2]; line 258, individual T1 plants): 100% | % injury ([2]; line 327, individual T1 plants): 10% and 20% and 60% (2×) and 70% and 80% and 95% and 98% and 99% and 100% (6×) | appearance of shoots treated with isoxaflutole (wild-type soybean shoots): entirely bleached | transgenic tested shoots showing normal greening [3]: 1%
